Here are results for two molecules from patent US7381540B2, “Composition for measuring glucose having improved substrate specificity” (Toyo Boseki Kabushiki Kaisha, priority 2005, dated 2008).

Assay [1] has as its system modified PQQGDH. Put plainly: Substrate specificity using glucose assay system (ferricyanide reduction, absorbance 420 nm). Type of assay: biochemical. The protocol:
D-glucose+ferricyanide ion+PQQGDH D-glucono-1,5-lactone+ferrocyanide ion
Specificity to each substrate can be determined by changing D-glucose to other saccharides. The presence of the ferrocyanide ion produced by reduction of the ferricyanide ion was confirmed by measuring the decrease of absorbance at a wavelength of 420 nm by spectrophotometry.
A. […]
B. Potassium ferricyanide solution: 50 mM (0.165 g potassium ferricyanide (molecular weight: 329.25) dissolved in 10 ml of distilled water)
C. PQQGDH solution: 31000 U/ml (approx. 128 mg PQQGDH (Toyobo: GLD-331) dissolved in 5 ml of distilled water)
D. Substrate solution (D-glucose solution or maltose solution): 100 or 400 mM
• 1. The following reaction mixture was prepared in a light shielding bottle, and stored on ice (prepared at use). 48.2 mL of each buffer solution (pH6.5) (A) • 4.0 mL of potassium ferricyanide solution (B) • 0.19 mL of (C) • 2. 2.65 ml of the reaction mixture and 0.3 ml of additive were placed in a test tube (plastic) and pre-warmed for 5 minutes at 37° C. • 3. 0.15 ml of substrate solution (D) were added and mixed gently. • 4. The reduction in the absorbance relative to water at 420 nm was recorded for 1 to 3 minutes with a spectrophotometer while maintaining at a temperature of 37° C., and the ΔOD per minute was calculated from the initial linear portion of the curve (ΔOD test). At the same time, the same procedure was carried out with the exception of adding distilled water instead of glucose solution followed by measurement of the blank (ΔOD blank).
The above-mentioned procedure was carried out at each of the predetermined concentrations shown in Tables 1 to 3 using as additives succinic acid, adipic acid, suberic acid, pimeric acid, potassium chloride, ammonium chloride, diammonium hydrogen citrate, malonic acid, L-lysine, taurine, 3,3-dimethylglutaric acid, malic acid, glutaric acid, calcium glycerate, amino-n-butyric acid, sodium glycolate, sodium α-ketoglutarate, fumaric acid, glycerin, glutamic acid and serine. And the procedure was also carried out for those not containing additives to assess the effects of additives.
Variation in absorbance per unit time was determined by calculating ΔOD/min(ΔOD test−ΔOD blank)
To evaluate whether activity had declined with respect to sugars other than glucose, the ΔOD/min (a) with D-glucose as the substrate solution and the ΔOD/min (b) with the other sugar in place of D-glucose as the substrate solution were measured, and the relative value ((b)/(a)×100) was calculated given 100 as the measurement value with glucose as the substrate.
In each of Tables 3 to 5, in the case the value of the ratio of measured values of maltose and glucose (maltose/glucose) relative to the control (control: no addition) is small, activity with respect to maltose during glucose measurement decreases.

Assay [2] concerns modified PQQGDH. In words: Maltose activity of glucose electrode loaded with modified PQQGDH (oxidation current, potassium ferricyanide mediator). The settings on record: for Maltose Activity of Glucose Electrode: 50 mM solvent, 1 mM calcium chloride, 0.1% Triton X-100. The class given is biochemical, Acinetobacter baumannii strain NCIMB11517. The protocol:
0.5 g of carbon graphite were placed in a mortar followed by the addition of 0.3 ml of liquid paraffin and kneading with a pestle for 30 minutes to produce a carbon paste. The resulting carbon paste was spread onto a platinum electrode followed by the addition of 10 μl of the modified PQQGDH solution (2,000 U/ml) produced in Example 2 and air drying for 30 minutes at room temperature. A cut cellulose semi-permeable membrane (molecular weight: 8,000) was placed over the dried enzyme electrode and the semi-permeable membrane was immobilized with plastic O-rings. The glucose electrode produced in this manner was then used after preliminarily immersing in the cold reaction solvent for 30 minutes.
The substances listed in Table 1 were used as solutes, and buffers were respectively prepared having a final concentration of 50 mM (pH 5.5). Each of the solvents contained an activator/stabilizer in the form of calcium chloride at 1 mM and surfactant in the form of 0.1% Triton X-100 in addition to the solute listed in Table 1. Potassium ferricyanide was dissolved in each of the produced solvents to a concentration of 0.1 M to prepare reaction solutions.
50 mM phosphoric acid or pimeric acid solution containing 1 mM calcium chloride and 0.1% Triton X-100 (consisting of three types having pH values of 5.0, 6.0 and 7.0, respectively) were prepared. Maltose activity of the glucose electrode was investigated for each according to the method of Example 5.

Assay [3] relates to modified PQQGDH. Put plainly: Substrate specificity using glucose assay system (ferricyanide reduction, absorbance 420 nm). Particulars: potassium phosphate buffer pH 7.0. Type of assay: biochemical.
Assay [4] can be described thus: Maltose activity of purified PQQGDH by GDH activity measurement (PMS/DCPIP, Test Example 1). Particulars: substrate concentration in the assay mixture 4.8 mM; PIPES-NaOH pH 6.5, 37° C. Type of assay: biochemical, Acinetobacter baumannii strain NCIMB11517. The protocol:
D-glucose+PMS+PQQGDH→D-glucono-1,5-lactone+PMS (red)
PMS (red)+DCPIP→PMS+DCPIP (red)
The presence of DCPIP (red) formed by reduction of […] (DCPIP) by phenazine methosulfate (PMS) (red) was measured by spectrophotometry at 600 nm.
• A. D-glucose reagent: 1.0 M (1.8 g D-glucose (molecular weight: 180.16)/10 ml H2O) • B. PIPES-NaOH buffer: pH 6.5, 50 mM (1.51 g of PIPES (molecular weight: 302.36) suspended in 60 ml of water dissolved in 5 N NaOH followed by the addition of 2.2 ml of 10% Triton X-100; adjusted to pH of 6.5±0.5 at 25° C. using 5 N NaOH and brought to a final volume of 100 ml by addition of water) • C. PMS solution: 24 mM (73.52 mg of phenazine methosulfate (molecular weight: […])/10 ml H2O) • D. DCPIP solution: 2.0 mM (6.5 mg of […]/10 ml H2O • E. Enzyme diluent: 50 mM PIPES-NaOH buffer containing 1 mM CaCl2, 0.1% Triton X-100 and 0.1% BSA (pH: 6.5) Procedure:
The following reaction mixture was prepared in a light-protected bottle and stored on ice (prepared at the time of use). • 1. […]
The reduction in the absorbance relative to water at 600 nm was recorded for 4 to 5 minutes with a spectrophotometer while maintaining the temperature of the mixture at 37° C., and the ΔOD per minute was calculated from the initial linear portion of the curve (OD test). […]
Activity was calculated using the following formula. […]

In the case of `O=C(O)CCCCCC(=O)O` [Pimeric acid], the Maltose/glucose ratio in assay [1] (glutaric acid buffer pH 7.0, reagent 0.1%, substrate 4.8 mM, control 0.86) is 0.63; in assay [1] (glutaric acid buffer pH 7.0, reagent 0.1%, substrate 19.2 mM, control 0.94), 0.78; in assay [1] (glutaric acid buffer pH 7.0, reagent 1%, substrate 4.8 mM, control 0.86) it was 0.39; in assay [1] (glutaric acid buffer pH 7.0, reagent 1%, substrate 19.2 mM, control 0.94) it was 0.44; in assay [1] (phthalic acid buffer pH 7.0, reagent 0.05%, substrate 4.8 mM, control 0.72), 0.64; in assay [1] (phthalic acid buffer pH 7.0, reagent 0.05%, substrate 19.2 mM, control 0.75), 0.64. In addition, the Maltose/glucose ratio in assay [1] (phthalic acid buffer pH 7.0, reagent 0.1%, substrate 4.8 mM, control 0.72) is recorded as 0.71; in assay [1] (phthalic acid buffer pH 7.0, reagent 0.1%, substrate 19.2 mM, control 0.75), 0.58; in assay [1] (phthalic acid buffer pH 7.0, reagent 0.2%, substrate 4.8 mM, control 0.72) it was 0.76; in assay [1] (phthalic acid buffer pH 7.0, reagent 0.2%, substrate 19.2 mM, control 0.75), 0.58; in assay [1] (potassium phosphate buffer pH 7.0, reagent 0.5%, substrate 19.2 mM, control 0.93) it was 0.86; in assay [1] (potassium phosphate buffer pH 7.0, reagent 1%, substrate 19.2 mM, control 0.93), 0.80. Further, the Maltose/glucose ratio in assay [3] (reagent 0.5%, substrate 4.8 mM, control 0.85) turned out to be 0.71; in assay [3] (reagent 1%, substrate 4.8 mM, control 0.85), 0.58; in assay [3] (reagent 2%, substrate 4.8 mM, control 0.85), 0.44; in assay [3] (reagent 2%, substrate 19.2 mM, control 0.93), 0.58. For the same molecule, the “activity with respect to maltose compared with the control (in words)” value in assay [1] (substrate concentration of 4.8 mM, in some cases) is reported as “did not decrease”. Further, in assay [2] (pH 5.0, 6.0, 7.0, compared with phosphoric acid), the “maltose activity on lowering the pH (in words)” value is recorded as “decrease more”. For the same molecule, the figures for the “Maltose Activity of Glucose Electrode” value in assay [2] (pH 5.0), in assay [2] (pH 6.0) and in assay [2] (pH 7.0) were 15.2%, 23.8% and 49.1%, respectively. Further, the “Maltose Activity (%)” value in assay [2] (solute 50 mM, pH 5.5, glucose or maltose 4 mM, 0.1 M potassium ferricyanide, +0.35 V, 25° C.) is reported as 23.1%.

B1: wild type PQQGDH: wild type PQQ dependent glucose dehydrogenase (Toyobo GLD-321) (protein, listed as Acinetobacter baumannii)
chain: DIPLTPAQFAKAKTENFDKKVILSNLNKPHALLWGPDNQIWLTERATGKILRVNPVSGSAKTVFQVPEIVSDADGQNGLLGFAFHPDFKHNPYIYISGTFKNPKSTDKELPNQTIIRRYTYNKTTDTFEKPIDLIAGLPSSKDHQSGRLVIGPDQKIYYTIGDQGRNQLAYLFLPNQAQHTPTQQELNSKDYHTYMGKVLRLNLDGSVPKDNPSFNGVVSHIYTLGHRNPQGLAFAPNGKLLQSEQGPNSDDEINLVLKGGNYGWPNVAGYKDDSGYAYANYSAATNKSQIKDLAQNGIKVATGVPVTKESEWTGKNFVPPLKTLYTVQDTYNYNDPTCGEMAYICWPTVAPSSAYVYTGGKKAIPGWENTLLVPSLKRGVIFRIKLDPTYSTTLDDAIPMFKSNNRYRDVIASPEGNTLYVLTDTAGNVQKDDGSVTHTLENPGSLIKFTYNGK
For B1, in assay [4], the “maltose activity (ratio of the activity value when using maltose to the activity value when using glucose)” value stood at 110%.
